From patent US8501693B2, “Use of exendins and exendin agonists and GLP-1 receptor agonists for altering the concentration of fibrinogen” (Amylin Pharmaceuticals, LLC, priority 2006, dated 2013)

Experiments:
[1] = test system: lipoprotein subclass particles (LDL, HDL, VLDL); assay: Lipoprotein subclass particle concentration and particle size by proton NMR in the 1-year open-label exenatide vs biphasic insulin aspart trial; assay type: in vivo, human; settings: change from baseline to endpoint
Description: Lipoprotein subclass particle concentrations and average particle diameters are measured using proton nuclear magnetic resonance spectroscopy.
The particle concentrations of different lipoprotein subclasses are obtained by measuring the amplitudes of the characteristic lipid methyl NMR signals. The signal amplitudes of various subclasses are extracted from the overall lipid methyl group signal with a spectral deconvolution algorithm (LipoScience, Inc.). See e.g., Festa. VLDL and LDL particle concentrations are given in nanomoles per liter. HDL particle concentrations are provided in micromoles per liter.
Average particle sizes (in nanometers diameter) are computed as the sum of the diameter of the particle subclass multiplied by the relative mass percentage of the subclass as estimated from the amplitude of its methyl NMR signal.
Particle concentrations and sizes are compared before and after administration of an exendin or exendin agonist. See e.g., Table 1.

Fibrinogen = Fibrinogen concentration by the von Clauss clotting method in the 1-year open-label exenatide vs biphasic insulin aspart trial; assay type: in vivo, human; settings: patients with type 2 diabetes
Description: For test meal data, postprandial glucose incremental AUC0-4h is calculated at baseline and week 52.
Fibrinogen activity is measured by the von Clauss clotting method. By the von Clauss clotting method, thrombin is added to a test sample and the time until clotting is measured. Fibrinogen concentration is determined by comparing clotting time for the test sample to the clotting time of a standard curve for various reference plasmas.
Fibrinogen is measured at baseline, Week 16, Week 52, or at early termination of the study.

[2] = patients with type 2 diabetes, fasting
[3] = particle concentration, patients with type 2 diabetes

biphasic insulin aspart 30/70 was tested, and the “LDL Particle Size Δ mean (SEM)” value ([1]; patients with type 2 diabetes inadequately controlled by sulphonylurea and metformin, fasting) was “+0.11 (0.12) p = .356 nm”, the “HDL Particle Size Δ mean (SEM)” value [1, 2] was “+0.04 (0.05) p = .391 nm” and the “VLDL Particle Size Δ mean (SEM)” value [1, 2] was −1.6 (2.2) p = .482 nm. For the same substance, the “Large HDL Δ mean (SEM)” value [1, 3] was “+1.0 (0.4) p = .014 μmol/L”, the “Large LDL Δ mean (SEM)” value [1, 3] was “+37.7 (32.8) p = .258 nmol/L” and the “Small LDL Δ mean (SEM)” value [1, 3] was −25.8 (81.2) p = .753 nmol/L. The “Small VLDL Δ mean (SEM)” value [1, 3] was “+8.5 (4.2) p = .049 nmol/L”, the “Total HDL Δ mean (SEM)” value [1, 3] was “+2.5 (0.9) p = .012 μmol/L” and the “Total LDL Δ mean (SEM)” value [1, 3] was “+5.0 (75) p = .947 nmol/L”. The “Total VLDL Δ mean (SEM)” value [1, 3] was “+12.9 (6.6) p = .056 nmol/L”, the “Very Small LDL Δ mean (SEM)” value [1, 3] was −17.0 (64.6) p = .794 nmol/L and the “Fibrinogen level, Mean, Baseline” value (Fibrinogen; Baseline (before treatment) of the treatment group) was 4.22 g/L. For the same substance, the “Fibrinogen level, Mean, Endpoint (LOCF)” value (Fibrinogen; Endpoint, last post-baseline measurement carried forward (Week 16, Week 52 or early termination)) was 4.16 g/L.
